In patent US20250051357A1, “SOLID FORMS OF A GPR119 AGONIST AND PROCESSES FOR THE PREPARATION THEREOF” (MANKIND PHARMA LTD., priority 2023, published 2025):
Several values for one entry are separate records, joined by “and”; a condition that tells them apart may be missing. Identical values can stand only once.

Test: Particle size analysis, Malvern particle size analyzer (Mastersizer 3000)
Assay type: physicochemical
Conditions: particle size distribution d90 of the isolated batch; dispersant water, Tween-80 paste, Mie model
Procedure: Particle size analysis was performed using a Malvern particle size analyzer. (Mastersizer 3000, Malvern Instrument Ltd).
Weigh accurately 100 mg of sample in 100 ml beaker. Add 3 drops of Tween-80 and 1 mL of water and make a paste with the help of glass rod. Then add 10 ml water and sonicate externally for 10 seconds with continued shaking.

PSD (d90) | SMILES
50-80 μm | CCc1cnc(N2CCC([C@H](C)Oc3nn4cc(-c5ccc(S(C)(=O)=O)cc5F)nc4s3)CC2)nc1 [amorphous Form, 2-((S)-1-(1-(5-ethyl-pyrimidin-2-yl)piperidin-4-yl)ethoxy)-6-(2-fluoro-4-(methylsulfonyl)phenyl) imidazo[2,1-b][1,3,4]thiadiazole]
84.9 μm and 62.4 μm and 106 μm | CCc1cnc(N2CCC([C@H](C)Oc3nn4cc(-c5ccc(S(C)(=O)=O)cc5F)nc4s3)CC2)nc1 [Form M-1, 2-((S)-1-(1-(5-ethyl-pyrimidin-2-yl)piperidin-4-yl)ethoxy)-6-(2-fluoro-4-(methylsulfonyl)phenyl) imidazo[2,1-b][1,3,4]thiadiazole]
30-60 μm | CCc1cnc(N2CCC([C@H](C)Oc3nn4cc(-c5ccc(S(C)(=O)=O)cc5F)nc4s3)CC2)nc1 [Form M-4, 2-((S)-1-(1-(5-ethyl-pyrimidin-2-yl)piperidin-4-yl)ethoxy)-6-(2-fluoro-4-(methylsulfonyl)phenyl) imidazo[2,1-b][1,3,4]thiadiazole]
99.8 μm | CCc1cnc(N2CCC([C@H](C)Oc3nn4cc(-c5ccc(S(C)(=O)=O)cc5F)nc4s3)CC2)nc1 [Form M-2, 2-((S)-1-(1-(5-ethyl-pyrimidin-2-yl)piperidin-4-yl)ethoxy)-6-(2-fluoro-4-(methylsulfonyl)phenyl) imidazo[2,1-b][1,3,4]thiadiazole]
